Data taken from ChEMBL document CHEMBL3813639, “The Halicylindramides, Farnesoid X Receptor Antagonizing Depsipeptides from a Petrosia sp. Marine Sponge Collected in Korea” (J Nat Prod, 2016).
pEC50, pIC50: −log10 of the molar value. The source made the active and inactive calls. No cut-off for these calls is given here.

Columns and labels:
Bile acid receptor = target: T1, Bile acid receptor (Homo sapiens, UniProt Q96RI1); assay: Antagonist activity at human FXR expressed in CV-1 cells assessed as inhibition of CDCA-induced receptor transactivation after 24 hrs by luciferase reporter gene assay; assay type: cell-based
T1 sequence (Q96RI1 whole entry): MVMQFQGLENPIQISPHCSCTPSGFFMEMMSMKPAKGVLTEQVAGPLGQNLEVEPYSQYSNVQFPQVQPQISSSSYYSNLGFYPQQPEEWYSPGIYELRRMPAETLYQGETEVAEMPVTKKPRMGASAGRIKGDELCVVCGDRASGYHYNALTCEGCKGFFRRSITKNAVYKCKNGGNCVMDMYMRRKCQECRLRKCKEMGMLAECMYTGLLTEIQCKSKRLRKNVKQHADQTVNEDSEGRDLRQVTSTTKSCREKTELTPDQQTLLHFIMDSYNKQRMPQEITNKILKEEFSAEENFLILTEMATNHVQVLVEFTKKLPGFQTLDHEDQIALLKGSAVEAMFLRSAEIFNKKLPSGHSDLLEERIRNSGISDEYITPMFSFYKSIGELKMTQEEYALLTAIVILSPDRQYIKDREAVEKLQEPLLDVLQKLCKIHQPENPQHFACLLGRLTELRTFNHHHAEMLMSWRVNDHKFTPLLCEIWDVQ

HepG2 = assay: cells; settings: Homo sapiens, HepG2, 24 h
Description: Cytotoxicity against human HepG2 cells after 24 hrs by MTT assay

[1] = system: Human immunodeficiency virus 1; assay: Antiviral activity against HIV1 RF assessed as inhibition of viral infection in human T-lymphoblastoid cells; assay type: functional, organism-based; settings: Human immunodeficiency virus 1, RF
[2] = system: Human immunodeficiency virus 1; assay: Antiviral activity against HIV1 3B infected in human PBMC cells assessed as reduction in reverse transcriptase activity after 5 days by XTT assay; assay type: functional, organism-based; settings: Human immunodeficiency virus 1, 3B, 120 h
[3] = target: T2, Bile acid receptor (Homo sapiens) (UniProt Q96RI1); assay: Antagonist activity at human FXR expressed in CV-1 cells assessed as inhibition of CDCA-induced receptor transactivation upto 100 uM after 24 hrs by luciferase reporter gene assay; assay type: cell-based
T2 sequence (whole entry): T1 sequence (Q96RI1 whole entry)

Mus musculus = assay: Antiinflammatory activity in Swiss mouse assessed as inhibition of carrageenan-induced paw edema at 0.3 mg/kg, ip by hydroplethismometer; assay type: functional
MCF7 = assay: Antiproliferative activity against human MCF7 cells after 20 hrs by microculture tetrazolium assay; assay type: functional; settings: MCF7, 20 h, read-out: ED50 (the source's name)

| Compound | pIC50 (Bile acid receptor) | pIC50 (HepG2) | also measured |
| --- | --- | --- | --- |
| CC(C)[C@H](NC(=O)[C@H](NC(=O)[C@@H]1CCCN1C(=O)[C@H](Cc1ccc(Br)cc1)NC(=O)[C@@H](C)NC=O)C(C)C)C(=O)N[C@H](Cc1c[nH]c2ccccc12)C(=O)N[C@@H](CCCNC(=N)N)C(=O)N[C@H](CS(=O)(=O)O)C(=O)N[C@@H]1C(=O)N(C)[C@@H](CCC(N)=O)C(=O)N[C@H](Cc2ccccc2)C(=O)N[C@@H]([C@@H](C)O)C(=O)N[C@@H](CC(N)=O)C(=O)N(C)CC(=O)O[C@@H]1C | 6.30 | 4.70 |  |
| COc1cccc2c1C(=O)c1c(O)c3c(c(O)c1C2=O)C[C@@](O)(C(=O)CO)C[C@@H]3O[C@H]1C[C@H](N)[C@H](O)[C@H](C)O1 [DOXORUBICIN] |  | 5.68 |  |
| CCC(C)/C=C(C)/C=C\C(O)C(C)(O)C(=O)NCC(=O)N[C@@H](C(=O)N[C@H](C(=O)N[C@H](C(=O)N[C@H]1C(=O)N[C@H](COC)C(=O)NCC(=O)N[C@@H](C)CN(C)[C@H]([C@@H](C)O)CNC(C(OC)c2ccc(O)cc2)C(=O)N2CCCC[C@H]2C(=O)O[C@@H]1C(C)C)[C@@H](C)[C@@H](C)C(N)=O)[C@H](C)N)[C@@H](C)O (stereo not given in full) |  |  | pEC50 [1]: 8.59 |
| CC[C@@H](C)C[C@@H](C)[C@@H](O)[C@@H](C)C(=O)N[C@H](CCCN)C(=O)N[C@@H](CCC(=O)O)[C@@H](O)[C@@H](O)C(=O)N[C@H](C(=O)N[C@H]1C(=O)N[C@H](CO)C(=O)N[C@H](CCCN)C(=O)N[C@@H](CC(C)C)C(=O)N(C)[C@@H](CCC(N)=O)C(=O)N[C@@H]([C@@H](C)OC)C(=O)N[C@H](CC(=O)O)C(=O)N2CCCC[C@H]2C(=O)O[C@@H]1[C@H](C)C(C)C)[C@@H](C)[C@@H](C)C(N)=O |  |  | pIC50 [2]: 7.12 |
| CC(C)[C@@H](NC(=O)[C@H]1CCCN1C(=O)[C@H](Cc1ccc(Br)cc1)NC(=O)[C@@H](C)NC=O)C(=O)N[C@H](C(=O)N[C@H](C[C@]1(O)C(=O)Nc2ccccc21)C(=O)N[C@@H](CCCNC(=N)N)C(=O)N[C@H](CS(=O)(=O)O)C(=O)N[C@H]1C(=O)N(C)[C@H](CCC(N)=O)C(=O)N[C@@H](Cc2ccccc2)C(=O)N[C@H]([C@H](C)O)C(=O)N[C@H](CC(N)=O)C(=O)N(C)CC(=O)O[C@@H]1C)C(C)(C)C |  | 4.00 | inhibition [3]: inactive |
| CC(C)[C@@H](NC(=O)[C@H]1CCCN1C(=O)[C@H](Cc1ccc(Br)cc1)NC(=O)[C@@H](C)NC=O)C(=O)N[C@H](C(=O)N[C@H](C[C@@]1(O)C(=O)Nc2ccccc21)C(=O)N[C@@H](CCCNC(=N)N)C(=O)N[C@H](CS(=O)(=O)O)C(=O)N[C@H]1C(=O)N(C)[C@H](CCC(N)=O)C(=O)N[C@@H](Cc2ccccc2)C(=O)N[C@H]([C@H](C)O)C(=O)N[C@H](CC(N)=O)C(=O)N(C)CC(=O)O[C@@H]1C)C(C)(C)C |  | 4.00 | inhibition [3]: inactive |
| CC(C)[C@@H](NC(=O)[C@H]1CCCN1C(=O)[C@H](Cc1ccccc1)NC(=O)[C@@H](C)NC=O)C(=O)N[C@H](C(=O)N[C@H](Cc1c[nH]c2ccccc12)C(=O)N[C@@H](CCCNC(=N)N)C(=O)N[C@H](CS(=O)(=O)O)C(=O)N[C@H]1C(=O)N(C)[C@H](CCC(N)=O)C(=O)N[C@@H](Cc2ccccc2)C(=O)N[C@H]([C@H](C)O)C(=O)N[C@H](CC(N)=O)C(=O)N(C)CC(=O)O[C@@H]1C)C(C)(C)C | 5.22 | 4.00 |  |
| CC(C)[C@@H](NC(=O)[C@@H]1CCCN1C(=O)[C@H](Cc1ccc(Br)cc1)NC(=O)[C@@H](C)NC=O)C(=O)N[C@H](C(=O)N[C@H](Cc1c[nH]c2ccccc12)C(=O)N[C@@H](CCCNC(=N)N)C(=O)N[C@H](CS(=O)(=O)O)C(=O)N[C@@H]1C(=O)N(C)[C@@H](CCC(N)=O)C(=O)N[C@H](Cc2ccccc2)C(=O)N[C@@H]([C@@H](C)O)C(=O)N[C@@H](CC(N)=O)C(=O)N(C)CC(=O)O[C@@H]1C)C(C)(C)C | 5.30 | 4.00 |  |
| CCC[C@@H](CC[C@@H](C)[C@@H]1OC(=O)[C@H](C)NC(=O)[C@H]([C@@H](C)CCO)N(C)C(=O)[C@]2(C)CSC(=N2)[C@H](C)NC(=O)C1(C)C)OC |  |  | inhibition in vivo at 0.3 mg/kg (Mus musculus): 60% |
| CN[C@H](C(=O)N[C@H](C(=O)N(C)[C@H](/C=C(\C)C(=O)O)C(C)C)C(C)(C)C)C(C)(C)c1cn(C)c2ccccc12 [HEMIASTERLIN] |  |  | pEC50 (MCF7): 9.30 |
